In US20230076515A1, “STIMULI THAT HYPERACTIVATE RESIDENT DENDRITIC CELLS FOR CANCER IMMUNOTHERAPY” (Children's Medical Center Corporation, priority 2019, published 2023):

Experiments:
[1] = system: T cells from skin draining lymph nodes; assay: In vivo OVA immunization and T cell re-stimulation; set-up: species or system mouse; conditions: for antigen-specific tetramer+IFNγ+ T cell responses: 7 days post immunization with OVA, 7 days ex vivo re-stimulation with OVA-loaded BMDC
Protocol: Flow cytometry: After FcR blockade, 7 days BMDCs were resuspended in MACS buffer (PBS with 1% FCS and 2 mM EDTA), and stained with the following fluorescently conjugated antibodies (BioLegend): anti-CD11c (clone N418), anti-I-A/I-E (clone M5/114.15.2), anti-CD40 (clone 3/23), anti-CD80(16-10A1), anti-CD69 clone (H1.2F3), anti-H-2Kb (clone AF6-88.5). Single cell suspension from the tumor or draining inguinal lymph nodes, or skin inguinal adipose tissue were resuspended in MACS buffer (PBS with 1% FCS and 2 mM EDTA), and stained with the following fluorescently conjugated antibodies (BioLegend): anti-CD8α (clone 53-6.7), anti-CD4 (clone RM4-5), anti-CD44 (clone IM7), anti-CD62L (MEL-14), anti-CD3 (17A2), anti-CD103 (2E7), anti-CD69 clone (H1.2F3), anti-CD45 (A20 or 30F11). LIVE/DEAD™ Fixable Violet Dead Cell Stain Kit (Molecular probes) was used to determine the viability of cells, and cells were stained for 20 minutes in PBS at 4° C. Draining inguinal lymph nodes T cells were stained with OVA-peptide tetramers at room temperature for 1 h. PE-conjugated H2K(b) SIINFEKL (OVA 257-264; SEQ ID NO: 1) and APC conjugated I-A(b) AAHAEINEA (OVA 329-337; SEQ ID NO: 2) were used. I-A(b) and H2K(b) associated with CLIP peptides were used as isotype controls. Tetramers were purchased for NIH tetramer core facility. in some experiments, FITC anti-CD8.1 (clone Lyt-2.1 CD8-E1) purchased from accurate chemical was used with tetramers. To determine absolute number of cells, COUNTBRIGHT counting beads (Molecular probes) were used, following the manufacturer's protocol. Appropriate isotype controls were used as a staining control. Data were acquired on a BD FACS ARIA or BD Fortessa. Data were analyzed using FlowJo software.
Intracellular staining: For intracellular cytokine staining, cells were stimulated with 50 ng/ml phorbol 12-myristate 13-acetate (PMA) and 500 ng/ml ionomycin (Sigma-Aldrich) in the presence of GolgiStop (BD) and brefeldin A for 4-5 h. Cells were then washed twice with PBS, and stained with LIVE/DEAD™ Fixable violet or green Dead Cell Stain Kit (Molecular probes) in PBS for 20 min at 4° C. Cells were washed with MACS buffer, and stained for appropriate surface markers for 20 min at 4° C. After two washes, cells were fixed and permeabilized using BD Cytofix/Cytoperm kit for 20 min at 4° C., then washed with 1× perm wash buffer (BD) per manufacturer's protocol. Intracellular cytokine staining was performed in 1× perm buffer for 20-30 min at 4° C. with the following conjugated antibodies all purchased from BioLegend: anti-Ki67 (clone 16A8), anti-IFN-γ (clone XMG1.2), anti TNFα (clone MP6-XT22), anti-Gata3 (16E10A23), anti-IL4(11B11), anti-IL10 (clone JES5-16E3). Data were acquired on a BD FACS ARIA or BD Fortessa. Data were analyzed using FlowJo software.
In vivo immunization and T cell re-stimulation: Female C57BL/6J mice aged 8 weeks, were immunized subcutaneously (s.c.) on the left lower back with either 150 μg/mouse endotoxin-free OVA plus 10 μg/mouse LPS emulsified in incomplete Freund's adjuvant, or with 150 μg/mouse endotoxin-free OVA, plus 65 μg/mouse oxPAPC or PGPC, plus 10 μg/mouse LPS emulsified in incomplete Freund's adjuvant. In some experiments mice were injected s.c. with OVA alone or with LPS emulsified in Alum. 7 or 40 days after immunization, CD4^+ T cells and CD8^+ T cells were isolated from the draining lymph nodes of immunized mice by magnetic cell sorting with anti-CD4 beads or anti-CD8 beads and columns (Miltenyi Biotech). Enriched cells were then sorted as live CD45^+CD3^+CD4^+ cells or live CD45^+CD3^+CD8^+ using FACS ARIA. Purity post-sorting was >98%. Sorted cells were then seeded in 96-well plates at a concentration of 100.000 cells per well in the presence of 10-20×10^3 DC pulsed with serial dilutions of OVA, starting at 1 mg/ml. […]

FLT3-DCs = assay: FLT3-DC stimulation, cytokine ELISA and LDH release; assay type: cell-based, mouse; conditions: ELISA
Protocol: FIGS. 14A-B. Oxidized phospholipids induce hyperactive cDC1 and cDC2 cells that display a hypermigratory phenotype. (A) Wild-type or NLRP3^−/− or Casp1/11^−/− BMDCs generated using FLT3L were either left untreated (none) or treated with LPS alone, or Alum alone, or PGPC alone for 24 h, or BMDCs were primed for 3 h with LPS, then treated with indicated stimuli for 21 h. IL-1β and TNFα release was monitored by ELISA. The percentage of cell death was measured by LDH release in the cell supernatants. Means and SDs from three replicates are shown and data are representative of at least three independent experiments. (B) Wild-type BMDCs generated using FLT3L were sorted as cDC1 or cDC2 cells then treated with indicated stimuli as in A. IL-1β and TNFα release was monitored by ELISA. The percentage of cell death was measured by LDH release in the cell supernatants. Means and SDs from three independent experiments done in two different laboratories.
Virtually all studies assessing the state of cell-hyperactivation have focused on the ability of bone marrow derived DC (BMDCs), generated with the cytokine granulocyte-macrophage colony-stimulating factor (GM-CSF), to release IL-1β while retaining viability. […] To examine whether conventional DCs can achieve a hyperactivation state, we used BMDCs generated using the DC hematopoietin Fms-like tyrosine kinase 3 ligand (Flt3L). […]

OT-II naïve CD4+ T cells = assay: OT-II in vitro T-cell stimulation; assay type: cell-based, mouse; conditions: OVA-loaded BMDCs co-cultured with OT-II T cells; ELISA
Protocol: OT-I and OT-II in vitro T-cell stimulation: Splenic CD8^+ and CD4^+ T cells were sorted from OT-I and OT-II mice by magnetic cell sorting with anti-CD8 beads or anti-CD4 beads respectively (Miltenyi Biotech). Sorted T cells were then seeded in 96-well plates at a concentration of 100.000 cells per well in the presence of either 20.000 or 10.000 DCs (5:1 or 10:1 ratio) that were pretreated with either LPS (activation stimuli) or LPS+PGPC (hyperactivation stimuli) or LPS+Alum (pyroptotic stimuli) and pulsed (or not) with OVA protein or SIINFEKL (SEQ ID NO: 1) peptide at 100 μg/ml for 2 hours. 5 days post culture, supernatants were collected and clarified by centrifugation for short-term storage at −20° C. and cytokine measurement by ELISA.
Intracellular staining: For intracellular cytokine staining, cells were stimulated with 50 ng/ml phorbol 12-myristate 13-acetate (PMA) and 500 ng/ml ionomycin (Sigma-Aldrich) in the presence of GolgiStop (BD) and brefeldin A for 4-5 h. Cells were then washed twice with PBS, and stained with LIVE/DEAD™ Fixable violet or green Dead Cell Stain Kit (Molecular probes) in PBS for 20 min at 4° C. Cells were washed with MACS buffer, and stained for appropriate surface markers for 20 min at 4° C. […] Data were analyzed using FlowJo software.

BMDCs = assay: BMDC stimulation, cytokine ELISA and LDH release; assay type: cell-based, mouse; conditions: LPS alone or LPS priming 3 h then stimuli 21 h, ELISA
Protocol: Cell culture: BMDCs were generated by differentiating bone marrow in IMDM (Gibco), 10% B16-GM-CSF derived supernatant, 2 μM 2-mercaptoethanol, 100 U/ml penicillin, 100 μg/ml streptomycin (Sigma-Aldrich) and 10% FBS. 6 day after culture, BMDCs were washed with PBS and re-plated in IMDM with 10% FBS at a concentration of 1×10^6 cells/ml in a final volume of 100 μl. CD11c^+ DC purity was assessed by flow cytometry using BD Fortessa and was routinely above 80%. Splenic DCs from mice injected with B16-FLT3 for 15 days, were purified as CD11c^+MHC^+ live cells, then plated at a concentration of 1×10^6 cells/ml in a final volume of 100 μl in complete IMDM. To induce hyperactive or pyroptotic BMDCs, DCs were primed with LPS (1 μg/ml) for 3 hours, then stimulated with OxPAPC or PGPC (100 μg/ml) or alum (100 μg/ml) for 21 h in complete IMDM. […]
LDH Assay and ELISAs: Fresh supernatants were clarified by centrifugation after BMDC stimulation, then assayed for LDH release assay using the Pierce LDH cytotoxicity colorimetric assay kit (Life Technologies) following the manufacturer's protocol. Measurements for absorbance readings were performed on a Tecan plate reader at wavelengths of 490 nm and 680 nm. […] ELISA for IL-1β, TNFα, IL-10, IL-12p70, IFNγ, IL-2, IL-13, IL-4 and IL-17 were performed using eBioscience Ready-SET-Go! […]

[2] = OVA immunization, 40 days post-immunization, ex vivo re-stimulation with OVA-loaded BMDCs

Row | Molecule | antigen-specific tetramer+IFNγ+ T cell responses [1] | effector and memory T cell generation ([1]; OVA plus LPS plus lipid, in IFA) | IL-1β release (FLT3-DCs) | release of IL-10 and IL-13 (TH2-associated cytokines) (OT-II naïve CD4+ T cells) | IL-1β release (BMDCs) | T central memory cells (TCM) in dLN ([1]; 40 days post-immunization with OVA) | IFNγ production by re-stimulated T cells [1, 2] | IL-10, IL-4 and IL-13 production by re-stimulated T cells [1, 2]
1 | CCCCCCCCCCCCCCCC(=O)OC[C@H](COP(=O)([O-])OCC[N+](C)(C)C)OC(=O)CCCC(=O)O [PGPC, [(2R)-2-(4-carboxybutanoyloxy)-3-hexadecanoyloxypropyl] 2-(trimethylazaniumyl)ethyl phosphate] | highest frequency of tetramer+IFNγ+ responses | enhance the magnitude of effector and memory T cell generation |  |  |  |  |  | 
2 | lipopolysaccharide [LPS] | higher IFNγ effector function |  | did not induce IL-1β release from DCs | large amounts of IL-10, and IL-13 | did not induce the release of IL-1β | less abundant | producing IFNγ, IL-10, IL-4 and IL-13 | producing IFNγ, IL-10, IL-4 and IL-13
